Experimental data: paper PMC10455244, “Alpha-Mangostin: A Potent Inhibitor of TRPV3 and Pro-Inflammatory Cytokine Secretion in Keratinocytes” (International Journal of Molecular Sciences, 2023)

Target: T1, TRPV3 (G573S) (Homo sapiens, UniProt Q8NET8, G573S)
T1 construct: host or cells: HEK 293T (transient transfection, pEGFP-N1 co-transfected as a marker)
T1 sequence (Q8NET8 1-790 G573S): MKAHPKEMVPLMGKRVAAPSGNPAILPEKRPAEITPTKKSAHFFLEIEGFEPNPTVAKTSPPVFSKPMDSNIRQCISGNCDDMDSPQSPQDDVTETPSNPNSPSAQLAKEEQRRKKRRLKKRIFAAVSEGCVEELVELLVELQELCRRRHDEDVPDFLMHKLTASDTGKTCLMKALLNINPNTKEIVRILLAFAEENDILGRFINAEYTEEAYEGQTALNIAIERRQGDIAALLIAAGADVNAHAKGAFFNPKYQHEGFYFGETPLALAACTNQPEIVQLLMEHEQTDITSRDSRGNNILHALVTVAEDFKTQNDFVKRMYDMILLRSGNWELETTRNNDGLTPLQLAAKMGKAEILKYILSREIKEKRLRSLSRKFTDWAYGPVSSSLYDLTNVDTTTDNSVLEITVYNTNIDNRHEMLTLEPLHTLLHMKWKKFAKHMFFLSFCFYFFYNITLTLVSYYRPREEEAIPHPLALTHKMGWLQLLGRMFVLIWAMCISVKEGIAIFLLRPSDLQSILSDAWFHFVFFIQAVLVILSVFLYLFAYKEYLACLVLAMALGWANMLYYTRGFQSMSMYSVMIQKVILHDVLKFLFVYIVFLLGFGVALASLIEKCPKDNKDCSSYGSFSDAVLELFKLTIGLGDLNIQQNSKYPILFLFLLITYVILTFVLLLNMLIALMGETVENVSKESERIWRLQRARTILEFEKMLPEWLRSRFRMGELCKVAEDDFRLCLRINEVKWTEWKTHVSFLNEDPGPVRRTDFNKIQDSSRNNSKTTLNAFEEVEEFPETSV
Assay: Fura-2 calcium imaging, spontaneous Ca2+ increase in TRPV3 (G573S)-expressing HEK 293T cells
Format: cell-based
Settings: 1 µM
Description: Figure 4 Alpha-mangostin inhibited the activity of hyperactive TRPV3 mutant channels and rescued mutation-induced cell death. (A) Alpha-mangostin inhibited the channel current in representative TRPV3 (G573S)- and TRPV3 (G573C)-expressing HEK 293T cells. […] Currents were normalized to the response at −100 mV before adding alpha-mangostin. (C) Alpha-mangostin inhibited TRPV3-mediated intracellular calcium increase in TRPV3 (G573S)-expressing HEK 293T cells. […] The bar graph on the right summarizes the change in the intracellular calcium rise inhibited by alpha-mangostin. […]
Subsequently, the effects of alpha-mangostin on the activities of the mutated channels were further evaluated using intracellular calcium measurements.
Fura-2 AM (Thermo Fisher Scientific) was utilized as a fluorescent indicator to measure calcium signal, as described previously. […] To measure the cytosolic Ca^2+ level, a sequential excitation of Fura-2 is performed at 340 nm and 380 nm; then, the emission signals resulting from each excitation wavelength are measured and the ratio of these signals is calculated. […] Samples were excited using a wavelength of 380 nm for 20 ms, followed by 340 nm for 100 ms, and fluorescence at 510 nm was recorded. Recorded data were then analyzed using NIS-Element AR Version 5.00.00 (Nikon Instruments, Melville, NY, USA). […]

COc1c(O)cc2oc3cc(O)c(CC=C(C)C)c(O)c3c(=O)c2c1CC=C(C)C [Alpha-mangostin]
Effect on spontaneous intracellular calcium increase: potently attenuated
